According to patent US6380387B1, “4-Pyrimidinyl-n-acyl-l phenylalanines” (Hoffmann-La Roche Inc., priority 1999, dated 2002):

Key:
VLA-4 (α4β1 integrin) [1] = biological target: T1, VLA-4 (α4β1 integrin) (Homo sapiens, UniProt P05556+P13612); assay: VLA-4/VCAM-1 Screening Assay (solid-phase dual antibody ELISA); conditions: Ramos cell-derived VLA-4 binding to immobilized recombinant human VCAM-1
T1 construct: Ramos cells bearing cell-surface VLA-4; endogenous in cells; host or cells: Ramos cells
Procedure: VLA-4/VCAM-1 Screening Assay
VLA-4 antagonist activity, defined as ability to compete for binding to immobilized VCAM-1, was quantitated using a solid-phase, dual antibody ELISA. VLA-4 (α4β1 integrin) bound to VCAM-1 was detected by a complex of anti-integrin β1 antibody: HRP-conjugated anti-mouse IgG: chromogenic substrate (K-Blue). Initially, this entailed coating 96 well plates (Nunc Maxisorp) with recombinant human VCAM-1 (0.4 μg in 100 μl PBS), sealing each plate and then allowing the plates to stand at 4° C. for ˜18 hr. […] On the day of assay, all plates were washed twice with VCAM Assay Buffer (200 μl/well of 50 mM Tris-HCl, 100 mM NaCl, 1 mM MnCl2, 0.05% Tween 20; pH 7.4). Test compounds were dissolved in 100% DMSO and then diluted 1:20 in VCAM Assay Buffer supplemented with 1 mg/mL BSA (i.e., final DMSO=5%). A series of 1:4 dilutions were performed to achieve a concentration range of 0.005 nM-1.563 μM for each test compound. 100 μl per well of each dilution was added to the VCAM-coated plates, followed by 10 μl of Ramos cell-derived VLA-4. These plates were sequentially mixed on a platform shaker for 1 min, incubated for 2 hr at 37° C., and then washed four times with 200 μl/well VCAM Assay Buffer. 100 μl of mouse anti-human integrin β1 antibody was added to each well (0.6 μg/mL in VCAM Assay Buffer+1 mg/mL BSA) and allowed to incubate for 1 hr at 37° C. At the conclusion of this incubation period, all plates were washed four times with VCAM Assay Buffer (200 μl/well). A corresponding second antibody, HRP-conjugated goat anti-mouse IgG (100 μl per well @ 1:800 dilution in VCAM Assay Buffer+1 mg/mL BSA), was then added to each well, followed by a 1 hr incubation at room temperature and concluded by three washes (200 μl/well) with VCAM Assay Buffer. Color development was initiated by addition of 100 μl K-Blue per well (15 min incubation, room temp) and terminated by addition of 100 μl Red Stop Buffer per well. All plates were then read in a UV/Vis spectrophotometer at […]. Results were calculated as % inhibition of total binding (i.e., VLA-4+VCAM-1 in the absence of test compound). The results are provided in the following Table I (A=IC50<1 nM, B=IC50<10 nM): […]

VLA-4 (α4β1 integrin) [2] = biological target: T1, VLA-4 (α4β1 integrin); assay: Ramos (VLA-4)/VCAM-1 Cell-Based Screening Assay (cell adhesion); conditions: Calcein-AM labeled Ramos cells adhering to immobilized recombinant human VCAM-1
Procedure: Ramos (VLA-4)/VCAM-1 Cell-Based Screening Assay Protocol
Soluble recombinant human VCAM-1 (mixture of 5- and 7-Ig domain) was purified from CHO cell culture media by inmmunoaffinity chromatography and maintained in a solution containing 0.1 M Tris-glycine (pH 7.5), 0.1 M NaCl, 5 mM EDTA, 1 mM PMSF, […] NaN3 and 10 μg/mL leupeptin. Calcein-AM was purchased from Molecular Probes Inc.
VLA-4 (α4β1 integrin) antagonist activity, defined as ability to compete with cell-surface VLA-4 for binding to immobilized VCAM-1, was quantitated using a Ramos-VCAM-1 cell adhesion assay. Ramos cells bearing cell-surface VLA-4, were labeled with a fluorescent dye (Calcein-AM) and allowed to bind VCAM-1 in the presence or absence of test compounds. A reduction in fluorescence intensity associated with adherent cells (% inhibition) reflected competitive inhibition of VLA-4 mediated cell adhesion by the test compound.
Initially, this entailed coating 96 well plates (Nunc Maxisorp) with recombinant human VCAM-1 (100 ng in 100 μl PBS), sealing each plate and allowing the plates to stand at 4° C. for ≈18 hr. The VCAM-coated plates were subsequently washed twice with 0.05% Tween-20 in PBS, and then blocked for 1 hr (room temperature) with 200 μl of Blocking Buffer (1% BSA/0.02% thimerosal) to reduce non-specific binding. Following the incubation with Blocking Buffer, plates were inverted, blotted and the remaining buffer aspirated. Each plate was then washed with 300 μl PBS, inverted and the remaining PBS aspirated.
Test compounds were dissolved in 100% DMSO and then diluted 1:25 in VCAM Cell Adhesion Assay Buffer (4 mM CaCl2, 4 mM MgCl2 in 50 mM TRIS-HCl, pH 7.5) (final DMSO=4%). A series of eight 1:4 dilutions were performed for each compound (general concentration range of 1 nM-12,500 nM). 100 μl/well of each dilution was added to the VCAM-coated plates, followed by 100 μl of Ramos cells (200,000 cells/well in 1% BSA/PBS). Plates containing test compounds and Ramos cells were allowed to incubate for 45 min at room temperature, after which 165 μl/well PBS was added. Plates were inverted to remove non-adherent cells, blotted and 300 μl/well PBS added. Plates were again inverted, blotted and the remaining buffer gently aspirated. 100 μl Lysis Buffer (0.1% SDS in 50 mM TRIS-HCl, pH 8.5) was added to each well and agitated for 2 min on a rotary shaking platform. The plates were then read for fluorescence intensity on a Cytofluor 2300 (Millipore) fluorecence measurement system (excitation=485 nm, emission=530 nm). The results are shown in the following Table II, where (A=IC50<100 nM, B=IC50<10000 nM): […]

T1 sequence (P13612 34-1032): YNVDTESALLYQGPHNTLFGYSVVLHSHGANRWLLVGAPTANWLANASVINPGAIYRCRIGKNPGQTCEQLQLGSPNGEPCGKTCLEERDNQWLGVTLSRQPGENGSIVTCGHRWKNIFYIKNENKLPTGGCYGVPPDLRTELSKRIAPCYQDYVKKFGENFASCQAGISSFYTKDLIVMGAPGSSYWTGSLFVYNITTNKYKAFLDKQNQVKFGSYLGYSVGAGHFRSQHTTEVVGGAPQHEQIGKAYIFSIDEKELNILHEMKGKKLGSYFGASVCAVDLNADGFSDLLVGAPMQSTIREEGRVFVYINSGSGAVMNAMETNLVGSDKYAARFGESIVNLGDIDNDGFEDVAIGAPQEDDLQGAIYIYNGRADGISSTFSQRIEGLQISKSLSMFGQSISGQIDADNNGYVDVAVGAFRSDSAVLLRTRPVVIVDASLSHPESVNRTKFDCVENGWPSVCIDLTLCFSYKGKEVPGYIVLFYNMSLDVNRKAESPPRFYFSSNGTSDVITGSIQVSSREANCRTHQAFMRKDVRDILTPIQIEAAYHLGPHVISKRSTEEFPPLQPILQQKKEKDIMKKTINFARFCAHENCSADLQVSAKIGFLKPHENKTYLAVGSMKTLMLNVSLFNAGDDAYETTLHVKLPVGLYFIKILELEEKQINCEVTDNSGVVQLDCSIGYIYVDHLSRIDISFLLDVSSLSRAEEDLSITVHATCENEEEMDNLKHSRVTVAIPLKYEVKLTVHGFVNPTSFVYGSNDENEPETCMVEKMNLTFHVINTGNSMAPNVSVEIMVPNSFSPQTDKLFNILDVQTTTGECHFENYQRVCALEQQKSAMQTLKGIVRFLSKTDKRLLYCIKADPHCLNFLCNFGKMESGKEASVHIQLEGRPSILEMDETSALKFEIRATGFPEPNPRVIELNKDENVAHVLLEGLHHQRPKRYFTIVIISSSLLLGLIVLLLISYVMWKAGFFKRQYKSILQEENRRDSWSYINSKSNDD
T1 sequence (P05556 21-798): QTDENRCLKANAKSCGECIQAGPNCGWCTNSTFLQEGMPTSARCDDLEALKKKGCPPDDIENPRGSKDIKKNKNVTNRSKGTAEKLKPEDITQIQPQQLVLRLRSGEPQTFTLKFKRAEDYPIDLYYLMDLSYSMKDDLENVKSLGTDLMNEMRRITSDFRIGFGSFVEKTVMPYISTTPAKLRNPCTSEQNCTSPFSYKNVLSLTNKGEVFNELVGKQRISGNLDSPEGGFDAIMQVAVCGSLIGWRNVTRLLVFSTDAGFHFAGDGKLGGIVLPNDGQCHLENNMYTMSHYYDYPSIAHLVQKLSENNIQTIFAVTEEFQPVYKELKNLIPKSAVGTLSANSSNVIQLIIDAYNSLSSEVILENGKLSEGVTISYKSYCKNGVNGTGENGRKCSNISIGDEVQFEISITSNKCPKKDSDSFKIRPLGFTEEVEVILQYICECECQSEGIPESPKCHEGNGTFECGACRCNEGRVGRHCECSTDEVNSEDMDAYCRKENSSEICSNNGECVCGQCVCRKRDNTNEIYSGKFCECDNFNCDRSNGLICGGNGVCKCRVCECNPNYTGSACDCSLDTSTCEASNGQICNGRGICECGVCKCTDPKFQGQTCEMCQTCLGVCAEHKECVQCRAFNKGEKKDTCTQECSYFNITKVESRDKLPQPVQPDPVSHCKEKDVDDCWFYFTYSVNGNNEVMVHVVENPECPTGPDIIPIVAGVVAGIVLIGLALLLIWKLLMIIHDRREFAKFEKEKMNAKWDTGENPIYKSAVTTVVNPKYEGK

SMILES	IC50 (VLA-4 (α4β1 integrin) [1]) [nM]	IC50 (VLA-4 (α4β1 integrin) [2]) [nM]	melting point [°C]
COc1ccc(Br)c(C(=O)N[C@@H](Cc2ccc(-c3cn(C)c(=O)n(C)c3=O)cc2)C(=O)O)c1 [Example 5, N-[(2-bromo-5-methoxyphenyl)carbonyl]-4-[1,3-dimethyl-2,4-dioxo-5-pyrimidinyl]-L-phenylalanine]	< 1	< 10000	–
Cc1c(-c2ccc(C[C@H](NC(=O)c3c(Cl)cccc3C(C)C)C(=O)O)cc2)c(=O)n(C)c(=O)n1C [Example 17, N-[[2-chloro-6-(2-methylethyl)phenyl]carbonyl]-4-(1,3,6-trimethyl-2,4-dioxo-5-pyrimidinyl)-L-phenylalanine]	–	–	205 to 209
CCOC(=O)[C@H](Cc1ccc(-c2c(C)n(C)c(=O)n(C)c2=O)cc1)NC(=O)c1c(C)cccc1Cl [Example 30, N-[(2-chloro-6-methylphenyl)carbonyl]-4-(1,3,6-trimethyl-2,4-dioxo-5-pyrimidinyl)-L-phenylalanine ethyl ester]	–	< 10000	–
Cc1c(-c2ccc(C[C@H](NC(=O)c3c(Cl)cccc3Cl)C(=O)OCCN3CCOCC3)cc2)c(=O)n(C)c(=O)n1C [Example 31, N-[(2,6-dichlorophenyl)carbonyl]-4-(1,3,6-trimethyl-2,4-dioxo-5-pyrimidinyl)-L-phenylalanine 2-(4-morpholino)ethyl ester]	–	< 10000	90 to 94
Cc1cccc(Cl)c1C(=O)N[C@@H](Cc1ccc(-c2c(C)n(C)c(=O)n(C)c2=O)cc1)C(=O)OCCN1CCOCC1 [Example 32, N-[(2-chloro-6-methylphenyl)carbonyl]-4-(1,3,6-trimethyl-2,4-dioxo-5-pyrimidinyl)-L-phenylalanine 2-(4-morpholino)ethyl ester]	–	< 10000	–
CC(=O)OC(C)OC(=O)[C@H](Cc1ccc(-c2c(C)n(C)c(=O)n(C)c2=O)cc1)NC(=O)c1c(Cl)cccc1Cl (stereo partly drawn) [Example 33, N-[(2,6-dichlorophenyl)carbonyl]-4-(1,3,6-trimethyl-2,4-dioxo-5-pyrimidinyl)-L-phenylalanine 1-(acetoxy)ethyl ester]	–	< 10000	168 to 170
CC(=O)OC(C)OC(=O)[C@H](Cc1ccc(-c2c(C)n(C)c(=O)n(C)c2=O)cc1)NC(=O)c1c(C)cccc1Cl (stereo partly drawn) [Example 34, N-[(2-chloro-6-methylphenyl)carbonyl]-4-(1,3,6-trimethyl-2,4-dioxo-5-pyrimidinyl)-L-phenylalanine 1-(acetoxy)ethyl ester]	–	< 10000	84 to 88
Cc1c(-c2ccc(C[C@H](NC(=O)[C@@H]3CCCN3)C(=O)O)cc2)c(=O)n(C)c(=O)n1C [Example 35, L-prolyl-4-(1,3,6-trimethyl-2,4-dioxo-5-pyrimidinyl)-L-phenylalanine]	–	< 100	–

Second part, the compound after the results:

IC50 (VLA-4 (α4β1 integrin) [1]) [nM]	IC50 (VLA-4 (α4β1 integrin) [2]) [nM]	melting point [°C]	SMILES
< 1	< 100	234 to 236	Cc1cccc(Cl)c1C(=O)N[C@@H](Cc1ccc(-c2cn(C)c(=O)n(C)c2=O)cc1)C(=O)O [Example 2, N-[(2-chloro-6-methylphenyl)carbonyl]-4-(1,3-dimethyl-2,4-dioxo-5-pyrimidinyl)-L-phenylalanine]
< 10	< 100	–	COCCC1(C(=O)N[C@@H](Cc2ccc(-c3cn(C)c(=O)n(C)c3=O)cc2)C(=O)O)CCCC1 [Example 3, 4-[(1,3-dimethyl-2,4-dioxo-5-pyrimidinyl)]-N-[[1-(2-methoxyethyl)cyclopentyl]carbonyl]-L-phenylalanine]
< 1	< 100	–	Cc1cccc(Br)c1C(=O)N[C@@H](Cc1ccc(-c2cn(C)c(=O)n(C)c2=O)cc1)C(=O)O [Example 4, N-[(2-bromo-6-methylphenyl)carbonyl]-4-(1,3-dimethyl-2,4-dioxo-5-pyrimidinyl)-L-phenylalanine]
–	< 100	–	CCN(CC)CCOC(=O)[C@H](Cc1ccc(-c2c(C)n(C)c(=O)n(C)c2=O)cc1)NC(=O)c1c(Cl)cccc1Cl [Example 28, N-[(2,6-dichlorophenyl)carbonyl]-4-(1,3,6-trimethyl-2,4-dioxo-5-pyrimidinyl)-L-phenylalanine 2-[(N,N-diethyl)amino]ethyl ester]
–	< 100	–	CCN(CC)CCOC(=O)[C@H](Cc1ccc(-c2c(C)n(C)c(=O)n(C)c2=O)cc1)NC(=O)c1c(C)cccc1Cl [Example 29, N-[(2-chloro-6-methylphenyl)carbonyl]-4-(1,3,6-trimethyl-2,4-dioxo-5-pyrimidinyl)-L-phenylalanine 2-[(N,N-diethyl)amino]ethyl ester]
